# Laboratory results as given in patent publication US20220127297A1, “Novel Antibacterial 3"-Derivatives Of 4,6-Disubstituted 2,5-Dideoxystreptamine Aminoglycoside Antibiotics” (AGILeBiotics B.V., priority 2018, published 2022).
# Tests used:
# Assay in all cases: MIC determination at Uppsala University
# Assay type in all cases: cell-based
# [1] = test system: A. baumanii 195N (a); conditions: Acinetobacter baumannii, AAC(3)Ia, ANT(3″)Ia, APH(3″)Ib, APH(3′)VI, APH(6)Id
# From the text: (§1) 3.4.1 MIC Determination at Uppsala University (Sweden)
# (§2) Tested reference compounds. Amikacin disulfate (Cat. No. A1774, Sigma Aldrich), Apramycin sulfate (Cat. No. A2024, Sigma Aldrich) and Gentamicin sulfate (Cat. No. G1914, Sigma Aldrich).
# (§3) Bacterial strains/isolates. All assayed laboratory and clinical strains (P. aeruginosa PA01, A. baumanii ATCC 19606, A. baumanii 195N(a), A. baumanii 48F, E. coli C1162, E. coli C1181, M. morgannii S49 and P. stuartii B8-1) were from the IMI ND4BB ENABLE consortium strain collection. ATCC laboratory strains were acquired directly from the American Type Culture Collection. Clinical strains used were previously published (M Juhas, et al. J. Antimicrob. Chemother., 74 (4), 944-952 (2019); D. Hughes et al., Antimicrob. Agents Chemother., 47 (10), 3222-3232 (2003)) and were resistance genotyped within the ENABLE consortium.
# (§4) Culture media and equipment. Water (Thermo Scientific, R05819); Mueller-Hinton II broth (BD Ref. 212322); sterile round-bottom 96-well plates (Thermo Scientific, 262162); Sensititre Nephelometer (ThermoFisher Scientific, V3011); 0.5 McFarland Standard (ThermoFisher Scientific, E1041); sterile polyester film (VWR, 391-1251).
# (§5) Compound preparation. MIC assay procedure follows the CLSI M07 standard method (Clinical and Laboratory Standards Institute (CLSI); Methods for dilution antimicrobial susceptibility tests for bacteria that grow aerobically; approved standard—eleventh edition, M07-A10, Vol. 38, No. 2, 2018). Test compounds were received as solids and were dissolved in water to a concentration of 10 mg/mL of active compound. […] This solution was serially diluted in 2-fold steps in the first 10 columns of sterile round-bottom 96-well plates, while the final two columns were filled with Mueller-Hinton II broth without added compound for use as positive and negative growth controls.
# (§6) Inoculum preparation. Inoculums were prepared by suspending several colonies freshly streaked culture of test strains in 5 mL of sterile 0.9% NaCl. The cell density of the inoculum solution was assessed and adjusted using a Sensititre Nephelometer and a 0.5 McFarland Standard. The inoculum was diluted 1:100 in Mueller-Hinton II broth and 50 μL of this inoculum solution was added to 50 μL of the test compound solutions yielding a concentration range of 64-0.125 μg/mL. The plates were sealed with sterile polyester film and stationarily incubated at 37° C. for 18 hours.
# (§7) MIC determination. The MIC value was determined by visual inspection of bacterial growth within 96-well plates. The lowest concentration completely inhibiting growth was reported as the MIC for each strain and compound combination.
# [2] = test system: A. baumanii 48F; conditions: Acinetobacter baumannii; A. boumanii 48F; ANT(2″)Ia, APH(3″)-Ib, APH(3′)-VIa, APH(6)-Id
# From the text: as §1, §2, §3, §4, §5, §6, §7
# [3] = test system: A. baumanii ATCC 19606; conditions: Acinetobacter baumannii, ATCC19606, AMEs: WT
# From the text: as §1, §2, §3, §4, §5, §6, §7
# [4] = test system: E. coli C1162; conditions: Escherichia coli, APH(3′)-Ia
# From the text: as §1, §2, §3, §4, §5, §6, §7
# [5] = test system: E. coli C1181; conditions: Escherichia coli, ANT(3″)-Ia, APH(3′)-Ia
# From the text: as §1, §2, §3, §4, §5, §6, §7
# [6] = test system: M. morgannii S49; conditions: Morganella morganii, AAC(3)-IId, ANT(3″), APH(3″)-Ib, APH(3′)-Ia, APH(6)-Id
# From the text: as §1, §2, §3, §4, §5, §6, §7
# [7] = test system: P. aeruginosa PAO1; conditions: Pseudomonas aeruginosa, AMEs: WT
# From the text: as §1, §2, §3, §4, §5, §6, §7
# [8] = test system: P. stuartii B8-1; conditions: Providencia stuartii, B81, AAC(3)-Ic, ANT (3″)Ia, APH(3′)-IIa, APH(3′)-IIb, APH(3′)-VI, APH(6)-Ic
# From the text: as §1, §2, §3, §4, §5, §6, §7
smiles,measurement,setting,value
"CN[C@@H]1[C@@H](O[C@H]2O[C@H](CO)[C@@H](N)[C@H](O)[C@H]2O)OC2C[C@@H](N)[C@@H](O[C@H]3[C@H](O)[C@@H](O)[C@H](N)C[C@@H]3N)OC2[C@@H]1O (some centres unmarked) [Apramycin, apramycin, reference compound]",MIC90,[1],32 µg/mL
same,MIC90,[2],32 µg/mL
same,MIC90,[3],32 µg/mL
same,MIC90,[4],8 µg/mL
same,MIC90,[5],8 µg/mL
same,MIC90,[6],8 µg/mL
same,MIC90,[7],8 µg/mL
same,MIC90,[8],8 µg/mL
